The term Km denotes the concentration of substrate that gives half-maximal velocity.

These results are taken from PMC12524486, “Characterization of α-L-Rhamnosidase and β-D-Glucosidase Subunits of Naringinase Immobilized on a Magnetic Polysaccharide Carrier” (International Journal of Molecular Sciences, 2025).

The test system of experiment [1] is T1, β-D-glucosidase subunit of free naringinase from A. niger KMS.
T1 construct: gene beta-D-glucosidase; native secreted enzyme in a crude naringinase preparation (culture fluid ultrafiltered, acetone precipitated)
The experiment can be described thus: p-nitrophenol release at […] nm, initial rates, Lineweaver-Burk. Type of experiment: biochemical, Aspergillus niger. The settings on record: free enzyme (crude naringinase preparation), 0.1 M buffer pH 4.0, 50 °C, substrate 0.4-1.5 mM.

Experiment [2] relates to T2, α-L-rhamnosidase subunit of free naringinase from A. niger KMS.
T2 construct: gene alpha-L-rhamnosidase; native secreted enzyme in a crude naringinase preparation (culture fluid ultrafiltered, acetone precipitated)
Described as above. It counts as biochemical, Aspergillus niger. To be noted: free enzyme (crude naringinase preparation), 0.1 M buffer pH 4.0, 50 °C, substrate 0.4-1.5 mM.

Consider `O=[N+]([O-])c1ccc(O[C@@H]2O[C@H](CO)[C@@H](O)[C@H](O)[C@H]2O)cc1` [pNPG, 4-nitrophenyl β-D-glucopyranoside], for which, in experiment [1], the Km came out at 2720 ± 78 µM.
`C[C@@H]1O[C@@H](Oc2ccc([N+](=O)[O-])cc2)[C@H](O)[C@H](O)[C@H]1O` [pNPR, 4-nitrophenyl α-L-rhamnopyranoside]: the Km in experiment [2] stood at 2080 ± 35.5 µM.
